Experimental data reported in patent US10316056B2, “Chemical compounds and use thereof for improving muscular quality” (BIOPHYTIS, priority 2014, dated 2019).

Tests used:
in vivo = conditions: male, Wistar, rat, po, 10 mg/kg
Experimental: (§5) The pharmacokinetics of the compounds were evaluated orally using male Wistar rats (Charles River). […] The novel compounds according to the invention were administered at a dose of 10 mg/kg of body weight in the form of a mixture of 4 to 6 products. After administration, the blood was sampled from the tail at t=0.25 h, 0.5 h, 1 h, 3 h, 6 h and 8 h. The blood samples were centrifuged and the plasmas removed.

MyoD transcripts = assay: Mice subjected to a high-fat diet: MyoD transcripts of the Soleus muscle; assay type: in vivo, C57BL/6J mice; conditions: 5 mg/kg orally; high-fat diet for 6 weeks; FIG. 5A
Experimental: (§1) The 20E as comparative compound and the compounds according to the invention (Nos. 51 and 93) were administered orally, at a dose of 5 mg/kg of body weight, to 12-week-old C57BL/6J mice subjected to a high-fat diet for 6 weeks. The effect of the compounds on the weight and the amount of proteins of the Soleus muscle and also the transcripts of genes involved in myogenesis were evaluated.
(§2) Myogenesis, which is the process for forming muscle tissues, is controlled by several myogenic transcription factors which act as end effectors of the signaling cascade and produce transcripts involved in the various stages of development. The roles of the transcription factors have been described in various journals (Sabourin and Rudnicki 2000 and Le Grand and Rudnicki 2007). The Pax7 protein (Paired-box protein 7) maintains a population of satellite cells in quiescence and, with Myf5 (Myogenic factor 5), plays a role in the expansion of activated myoblasts. The MyoD protein (Myoblast Determination protein) appears to determine the differentiation potential of activated myoblasts, and cooperates with myogenin and the MEF2 (Myocyte Enhancer Factor 2) protein to control and bring about differentiation. Finally, MRF4 (Muscle-specific Regulatory Factor 4) is required for hypertrophy, even though it probably plays other roles. […]
(§3) The relative differences in gene expression between treatments are expressed as increase or decrease in the number of cycle times [Ct] compared with the control group, the [Ct] value of each gene having been standardized with the beta-actin gene.
(§4) The in vivo study is carried out by evaluating the effect of 20E as comparative compound and of the molecules according to the invention (Nos. 51 and 93) administered orally, at a dose of 5 mg/kg of body weight, to C57BL/6 mice subjected to a high-fat diet for 6 weeks. The effect of the molecules on the weight and the amount of proteins of the Soleus muscle and also the transcripts of genes involved in myogenesis were evaluated.

myostatin transcript = assay: Mice subjected to a high-fat diet: myostatin transcript of the Soleus muscle; assay type: in vivo, C57BL/6J mice; conditions: 5 mg/kg orally; high-fat diet for 6 weeks; FIG. 4
Experimental: as §1
In order to carry out the gene expression analysis, the muscle tissues were homogenized in a Trizol solution (500 μl), and the RNAs were extracted and purified using the phenol/chloroform method. An amount of […] of RNA was used as template for the synthesis of the first cDNA strand using oligo (dT)s as primers and the AMV reverse transcriptase enzyme as described by the supplier (Applied Biosystems 4368814). The q-PCRs were then carried out using a 7900HT machine equipped with a rapid system for real-time detection by PCR (Applied Biosystems) and the standard qPCR program (1 cycle of 95° C. for 15 min, 40 cycles of 95° C. for 15 s and 60° C. for 1 min, a 60-95° C. melt curve for the Sybergreen probes). The experiments are carried out in a Sybergreen SYBR master mix (Applied Biosystems) containing the 100 ng cDNA samples and a set of primers which bind to the two different exons and at a final concentration of 200 nM.
as §3, §4

myogenin transcripts = assay: Mice subjected to a high-fat diet: myogenin transcripts of the Soleus muscle; assay type: in vivo, C57BL/6J mice; conditions: 5 mg/kg orally; high-fat diet for 6 weeks; FIG. 5B
Experimental: as §1, §2, §3, §4

Myf5 gene transcripts = assay: Mice subjected to a high-fat diet: Myf5 transcripts; assay type: in vivo, C57BL/6J mice; conditions: 5 mg/kg orally; high-fat diet for 6 weeks
Experimental: as §1, §2, §3, §4

[1] = system: myostatin gene expression in C2C12 cells; assay: Inhibition of myostatin expression in C2C12 cells (qPCR); assay type: cell-based; conditions: Mus musculus, percentage myostatin gene expression in cells in contact with the compounds related to control cells, C2C12, 6 h
Summary of the method: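 C2C12 myoblasts differentiated to myotubes for 5 days in 2% serum, then treated 6 h with compounds in serum-free, low-glucose (1 g/l) DMEM; IGF-1 100 ng/ml as reference. Myostatin mRNA quantified by RT-qPCR, expressed relative to untreated control as R=2^-ΔΔCt.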

[2] = rat, in vivo, po; for Cexp (coefficient of exposure): male, Wistar
Experimental: as §5

CCC(CC)C(=O)N(CCOC)C(C)[C@H]1CC[C@@]2(O)C3=CC(=O)[C@@H]4C[C@@H](O)[C@@H](O)C[C@]4(C)C3CC[C@]12C (stereo partly drawn) [Compound 51, 2-ethyl-N-(2-methoxyethyl)-N-[1-[(2S,3R,5R,10R,13R,14S,17S)-2,3,14-trihydroxy-10,13-dimethyl-6-oxo-2,3,4,5,9,11,12,15,16,17-decahydro-1H-cyclopenta[a]phenanthren-17-yl]ethyl]butanamide]
AUC (in vivo): 273 ng·h/mL | Cmax (in vivo): 174 ng/mL | Tmax (in vivo): 15 min | transcripts of the MyoD gene (MyoD transcripts): increase | myostatin expression in the Soleus muscle (myostatin transcript): comparably inhibit | transcript of the myogenin gene (myogenin transcripts): increase | transcripts of the Myf5 gene (Myf5 gene transcripts): increase | mrna remaining at 10 µM [1]: < 70% | Cexp (coefficient of exposure) [2]: 3.6 | plasma exposure compared with 20E [2]: better plasma exposure

CCSCC(=O)[C@H]1CC[C@@]2(O)C3=CC(=O)[C@@H]4C[C@@H](O)[C@@H](O)C[C@]4(C)C3CC[C@]12C (stereo partly drawn) [Compound 93, (2S,3R,5R,10R,13R,14S,17S)-17-(2-ethylsulfanylacetyl)-2,3,14-trihydroxy-10,13-dimethyl-2,3,4,5,9,11,12,15,16,17-decahydro-1H-cyclopenta[a]phenanthren-6-one]
AUC (in vivo): 785 ng·h/mL | Cmax (in vivo): 230 ng/mL | Tmax (in vivo): 30 min | transcripts of the MyoD gene (MyoD transcripts): increase | myostatin expression in the Soleus muscle (myostatin transcript): comparably inhibit | transcript of the myogenin gene (myogenin transcripts): increase | transcripts of the Myf5 gene (Myf5 gene transcripts): increase | mrna remaining at 10 µM [1]: < 70% | Cexp (coefficient of exposure) [2]: 10.3 | plasma exposure compared with 20E [2]: better plasma exposure
